Results reported in patent US20220054465A1, “(PYRIDIN-2-YL)AMINE DERIVATIVES AS TGF-BETA R1 (ALK5) INHIBITORS FOR THE TREATMENT OF CANCER” (Nexys Therapeutics, Inc., priority 2018, published 2022).

Test system: HEK-Blue TGFβ cell
Assay: HEK-Blue TGFβ cellular reporter gene assay (SEAP readout)
Format: cell-based
Settings: HEK-Blue TGFβ cells stimulated with TGF-β, 22-23 h incubation, SEAP read at 630 nm
Method: HEK-Blue TGFβ Cellular Reporter Gene Assay:
HEK-Blue TGFβ cell was purchased from Invivogen. Cell suspension of 2.5×10^5 cells/ml was prepared using Test Medium (DMEM containing 0.5% v/v heat-inactivated FBS). TGF-β working solution (6 ng/ml) was obtained through diluting TGF-β stock solution (10 μg/ml) by Test Medium before use. Eight different concentrations of all compounds were obtained by 3× gradient dilution method using TGF-β working solution. Add 100 μl of Test Medium (Vehicle) or test article or TGF-β working solution per well of a flat-bottom 96-well plate. Add 100 μl of HEK-Blue TGF-β cell suspension per well. Incubate the plate at 37° C. in a CO2 incubator for 22-23 h. Add 150 μl of resuspended QUANTI-Blue per well of a new flat-bottom 96-well plate. Add 30 μl of induced HEK-Blue TGF-β cells supernatant. Avoid pipetting at the bottom of wells. Incubate the plate at 37° C. incubator for 30-40 min. Determine secreted embryonic alkaline phosphatase (SEAP) levels using a spectrophotometer at 630 nm.
The inhibition was calculated using the equation: […]

| SMILES | IC50 [nM] |
| --- | --- |
| Cc1ccc(Oc2ccnc(Nc3cccc(C(C)(C)C(=O)O)c3)c2)c(-c2ccccn2)n1 [Example 72, 2-methyl-2-(3-((4-((6-methyl-[2,2′-bipyridin]-3-yl)oxy)pyridin-2-yl)amino)phenyl)propanoic acid] | 180 |
| Cc1ccc(Oc2ccnc(Nc3cccc(C(C)(C)C(=O)O)c3)c2)c(C)n1 [Example 73] | 140 |
| Cc1nc(-c2ccccc2)ccc1Oc1ccnc(Nc2cccc(C(C)(C)C(=O)O)c2)c1 [Example 75] | 8120 |
| Cc1cc(Oc2ccnc(Nc3cccc(OCC(=O)O)c3)c2)c(-c2ccccn2)nc1C [Example 76] | > 10000 |
| Cc1ccc(Oc2ccnc(Nc3cccc(C4(C(=O)O)CC4)c3)c2)c(-c2ccccc2)n1 [Example 77, 1-(3-((4-((6-methyl-2-phenylpyridin-3-yl)oxy)pyridin-2-yl)amino)phenyl)cyclopropane-1-carboxylic acid] | 80 |
| Cc1ccc(Oc2ccnc(Nc3cccc(C(C)(C)C(=O)O)c3)c2)c(-c2cccc(Cl)c2)n1 [Example 78] | 110 |
| Cc1ccc(Oc2ccnc(Nc3cccc(C(C)(C)C(=O)O)c3)c2)c(-c2ccc(Cl)cc2)n1 [Example 79] | 180 |
| Cc1ccc(Oc2ccnc(Nc3cccc(C(C)(C)C(=O)O)c3)c2)c(-c2ccccc2Cl)n1 [Example 80] | 110 |
| CCc1nc(C)c(Oc2ccnc(Nc3cccc(C(C)(C)C(=O)O)c3)c2)cc1C [Example 82] | 18 |
| CCc1nc(C)c(Oc2ccnc(Nc3cccc(C(C)(C)C(=O)O)c3)c2)cc1Cl [Example 83] | 35 |
| CCc1ccc(Oc2ccnc(Nc3cccc(C(C)(C)C(=O)O)c3)c2)c(-c2ccccn2)n1 [Example 84] | 55 |
| CCc1nc(-c2ccccn2)c(Oc2ccnc(Nc3cccc(C(C)(C)C(=O)O)c3)c2)cc1C [Example 85] | 44 |
| COc1ccccc1-c1nc(C)ccc1Oc1ccnc(Nc2cccc(C(C)(C)C(=O)O)c2)c1 [Example 86] | 240 |
| COc1cccc(-c2nc(C)ccc2Oc2ccnc(Nc3cccc(C(C)(C)C(=O)O)c3)c2)c1 [Example 87] | 94 |
| COc1ccc(-c2nc(C)ccc2Oc2ccnc(Nc3cccc(C(C)(C)C(=O)O)c3)c2)cc1 [Example 88] | 39 |
| Cc1ccc(Oc2ccnc(Nc3cccc(C(C)(C)C(=O)O)c3)c2)c(-c2ccccc2F)n1 [Example 89] | 27 |
| Cc1ccc(Oc2ccnc(Nc3cccc(C(C)(C)C(=O)O)c3)c2)c(-c2cccc(F)c2)n1 [Example 90] | 24 |
| Cc1ccc(Oc2ccnc(Nc3cccc(C(C)(C)C(=O)O)c3)c2)c(-c2ccc(F)cc2)n1 [Example 91] | 18 |
| Cc1ccc(Oc2ccnc(Nc3cccc(C(C)(C)C(=O)O)c3)c2)c(-c2ccccc2C)n1 [Example 92] | 80 |
| Cc1cccc(-c2nc(C)ccc2Oc2ccnc(Nc3cccc(C(C)(C)C(=O)O)c3)c2)c1 [Example 93] | 120 |
| Cc1ccc(-c2nc(C)ccc2Oc2ccnc(Nc3cccc(C(C)(C)C(=O)O)c3)c2)cc1 [Example 94] | 64 |
| Cc1ccc(Oc2ccnc(Nc3cccc(C(C)(C)C(=O)O)c3)c2)c(-c2ccccc2C#N)n1 [Example 95] | 290 |
| Cc1ccc(Oc2ccnc(Nc3cccc(C(C)(C)C(=O)O)c3)c2)c(-c2cccc(C#N)c2)n1 [Example 96] | 190 |
| Cc1ccc(Oc2ccnc(Nc3cccc(C(C)(C)C(=O)O)c3)c2)c(-c2ccc(C#N)cc2)n1 [Example 97] | 200 |
| Cc1cc(Oc2ccnc(Nc3cccc(C(C)(C)C(=O)O)c3)c2)c(-c2ccccc2)nc1C [Example 98] | 51 |
| Cc1nc(-c2ccccc2)c(Oc2ccnc(Nc3cccc(C(C)(C)C(=O)O)c3)c2)cc1Cl [Example 99] | 23 |
| CCc1cc(Oc2ccnc(Nc3cccc(C(C)(C)C(=O)O)c3)c2)c(-c2ccccc2)nc1C [Example 100] | 2590 |
| Cc1nc(-c2ccccc2)c(Oc2ccnc(Nc3cccc(C(C)(C)C(=O)O)c3)c2)cc1C1CC1 [Example 101] | 3310 |
| Cc1nc(-c2ccccc2)c(Oc2ccnc(Nc3cccc(C(C)(C)C(=O)O)c3)c2)cc1C(C)C [Example 102] | 2710 |
